Data published in patent US11945786B2, “Compounds, devices, and uses thereof” (SIGILON THERAPEUTICS, INC., priority 2016, dated 2024).

Each compound was assayed on Macrophage cell lines (assay: In vitro macrophage adhesion assay (Example 8)). Details: compound conjugated to NHS-activated 96 well plate; 50000 cells per well, 37 degrees Celsius, one hour; averaged across eight wells; normalized PEG750=0, Fibronectin=100.
Format: cell-based
Procedure: Exemplary compounds of the invention were prepared at a concentration of 0.1M in a 0.1M bicarbonate buffer (pH 8.2) containing 25% v/v DMSO. Control solutions of 0.1M PEG750-amine and 0.01% fibronectin were prepared in 0.1M bicarbonate buffer (pH 8.2).
Each small molecule amine solution (100 μL) was pipetted into eight wells of an NHS-activated 96 well plate and incubated 2 hours at room temperature. Each plate consisted of two lanes spiked with the two control solutions and ten lanes spiked with test molecule solutions. The test wells were rinsed once with 200 μL 0.1M bicarbonate buffer (pH 8.2) containing 25% v/v DMSO followed by three washes with 200 μL Hyclone™ water. The control wells were rinsed with 0.1M bicarbonate buffer (pH 8.2) followed by three 200 μL Hyclone™ water washes. Plates were dried at room temperature in a sterile hood and stored at 4-8° C. until use.
Macrophage cell lines were plated onto 96 well plates, 50000 cells per well, and incubated at 37 degrees Celsius for one hour. Plates were then placed at a 45-degree angle and washed by applying fluid shear 5 times. Non-adherent and adherent cells were then separated and treated with a Cell titer-glo kit to quantify the number of live cells. Live cells were detected using luminescence-based plate reader measurements. The resulting cell adhesion values for each small molecule amine was averaged across the eight wells and standard deviations calculated. The average cell adhesion value for each small molecule was normalized relative to the averages for the two controls on each plate: PEG750=0, Fibronectin (FN)=100. Small molecule normalized value=(SM-PEG750)/(FN-PEG750). Results are expressed as a percentage of cells adhered on the plates. % Percent adherent cells=(Luminescence of adhered cells)/(Luminescence of adhered+non-adhered cells). In this table, “A” represents a cell adhesion value of <0% to about 10%; “B” represents a cell adhesion value of 10% to about 50%; and “C” represents a cell adhesion value of 50% to 100%.
With Fibronectin [reference compound] the “cell adhesion value (percentage of cells adhered on the plates)” value was “C (a cell adhesion value of 50% to 100%)”.
For `C=CC(=O)NCc1ccc(-n2cc(COC3CCCCO3)nn2)cc1` (stereo not drawn) [Compound 3040, N-(4-(4-(((tetrahydro-2H-pyran-2-yl)oxy)methyl)-1H-1,2,3-triazol-1-yl)benzyl)acrylamide], the “cell adhesion value (percentage of cells adhered on the plates)” value was “C (a cell adhesion value of 50% to 100%)”.
`NCCOCCOCCOCCn1cc(CN2CCS(=O)(=O)CC2)nn1` [Compound 3037, 4-((1-(2-(2-(2-(2-aminoethoxy)ethoxy)ethoxy)ethyl)-1H-1,2,3-triazol-4-yl)methyl)thiomorpholine 1,1-dioxide] was tested, and the “cell adhesion value (percentage of cells adhered on the plates)” value was “A (a cell adhesion value of <0% to about 10%)”.
